{
  "source": "patent US20200383969A1",
  "about": "“RIMEGEPANT FOR CGRP RELATED DISORDERS” (Biohaven Pharmaceutical Holding Company Ltd., priority 2018, published 2020)",
  "key": {"[1]": {"assay": "Study 201 (BHV3000-201), open label long-term safety study, rimegepant 75 mg, interim analysis", "type": "in vivo, human", "description": "Clinical Trial-BHV3000-201: Open Label Safety Study in Acute Treatment of Migraine (ClinicalTrials.gov Identifier: NCT 03266588) • Study Type: Interventional (Clinical Trial) • Estimated Enrollment: 2000 participants • Intervention Model: Single Group Assignment • Masking: None (Open Label) • Primary Purpose: Treatment • Official Title: A Multicenter, Open Label Long-Term Safety Study of BHV3000 in the Acute Treatment of Migraine • Actual Study Start Date: Aug. 30, 2017 • Estimated Primary Completion Date: July 2019 • Estimated Study Completion Date: July 2019 • 1. To assess the safety and tolerability of rimegepant (BHV-3000) by measuring the frequency and severity of adverse events and discontinuations due to adverse events [Time Frame: 52 weeks] Number of subjects with treatment-emergent adverse events as assessed through laboratory tests, ECGs, physical exam findings (safety and tolerability) • 1. ALT or […] with total bilirubin>2×ULN [Time Frame: 52 weeks] elevated liver function tests • 2. hepatic related adverse events and hepatic related adverse events that lead to discontinuation [Time Frame: 52 weeks] adverse events related to liver Results from the clinical trial described in Example 10 are summarized as follows. […] Patients were allowed to treat migraine attacks of all severities (mild to severe) up to once daily for a full year. The initial results for hepatic safety and tolerability of rimegepant 75 mg in study participants is based upon review of both adverse events and regularly scheduled liver function tests. Interim hepatic data were reviewed by an external and independent panel of liver experts. […] In the aggregate, it was noted that compared to migraine trials with drugs other than rimegepant, there was a very low incidence of overall elevations of liver function test abnormalities in rimegepant treated patients (1.0% incidence of serum ALT or AST>3× ULN). Subjects will continue to participate in Study 201 with additional data analyses to be submitted in the NDA and required 120-day safety updates. In addition to the interim safety analysis, data from subjects was assessed to determine reductions in the number of headache days per month."}, "[2]": {"assay": "Study 301 (BHV3000-301), Phase 3, rimegepant 75 mg tablet vs placebo, acute treatment of migraine", "type": "in vivo, human", "description": "Clinical Trial—BHV3000-301: Phase 3: Double-Blind, Randomized, Placebo-Controlled, Safety and Efficacy Trial of BHV-3000 (Rimegepant) for the Acute Treatment of Migraine (ClinicalTrials.gov Identifier: NCT03235479). • Study Type: Interventional (Clinical Trial) • Actual Enrollment: 1490 participants • Allocation: Randomized • Intervention Model: Parallel Assignment • Intervention Model Description: Double-blind to Sponsor, Investigator and Subject Randomized Controlled Trial • Masking: Triple (Participant, Care Provider, Investigator) • Masking Description: Double-blind to Sponsor, Investigator and Subject • Primary Purpose: Treatment • Official Title: BHV3000-301: Phase 3: Double-Blind, Randomized, Placebo-Controlled, Safety and Efficacy Trial of BHV-3000 (Rimegepant) for the Acute Treatment of Migraine • 1. Pain freedom of rimegepant (75 mg tablet) compared with placebo in the acute treatment of migraine will be measured using the number of evaluable subjects that report no pain at 2 hours post-dose. [Time Frame: Two hours post dose] • Pain will be measured on a 4 point Likert scale (0=none, 1=mild, 2=moderate, 3=severe) • 2. Freedom from the most bothersome symptom (MBS) of rimegepant (75 mg tablet) compared with placebo will be measured using the number of evaluable subjects that report the absence of their MBS at 2 hours post-dose. [Time Frame: Two hours post dose] • The MBS (nausea, phonophobia or photophobia) will measured using a binary scale (0=absent, 1=present). • 1. […] [Time Frame: 2 hours-24 hours post-dose] • Sustained Pain Freedom as measured by a 4 point numeric rating scale (None, Mild, Moderate, Severe) • 2. The difference between rimegepant (75 mg tablet) compared to placebo by tabulating the absence of photophobia at 2 hours post-dose in the subset of subjects that reported the presence of photophobia at headache baseline. [Time Frame: 2 hours post-dose] • Photophobia • 3. To evaluate rimegepant (75 mg tablet) compared to placebo by tabulating the number of subjects that report the absence of phonophobia at 2 hours post-dose in the subset of subjects that reported the presence of phonophobia at headache baseline. [Time Frame: 2 hours post-dose] • Phonophobia • 4. To measure the difference between rimegepant (75 mg tablet) compared to placebo on Pain Relief, at 2 hours post-dose, for those that report a pain level of moderate or severe at baseline and then report a pain level of none or mild. [Time Frame: 2 hours post-dose] • Pain Relief as measured by a 4 point numeric rating scale (None, Mild, Moderate, Severe) • 5. Freedom from Nausea by tabulating the number of subjects that report the absence of nausea at 2 hours post-dose in the subset of subjects that reported the presence of nausea at headache baseline. [Time Frame: 2 hours post-dose] • Freedom from Nausea • 6. The difference between rimegepant (75 mg tablet) compared to placebo on the probability of requiring rescue medication using the number of subjects that take rescue medication within […] administration of study medication (BHV3000 or placebo). [Time Frame: up to 24 hours post-dose] • Requiring Rescue Medication • 7. […] [Time Frame: 2 hours-24 hours post-dose] • Sustained Pain Freedom • 8. […] [Time Frame: 2 hours-24 hours post-dose] • Sustained Pain Relief as measured by a 4 point numeric rating scale (None, Mild, Moderate, Severe) • 9. […] [Time Frame: 2 hours-48 hours post-dose] • Sustained Pain Relief as measured by a 4 point numeric rating scale (None, Mild, Moderate, Severe) • 10. To measure the difference between rimegepant (75 mg tablet) relative to placebo on the proportion of subjects able to function normally, at 2 hours, using the number of subjects that self-report as “normal” on the functional disability scale. [Time Frame: 2 hours post-dose] • Functional Disability Score • 11. […]"}, "[3]": {"conditions": "both subjects not dosed before onset"}},
  "data": [
    {"smiles": "N[C@@H]1c2cccnc2[C@H](OC(=O)N2CCC(n3c(=O)[nH]c4ncccc43)CC2)CC[C@H]1c1cccc(F)c1F", "note": "[Rimegepant, [(5S,6S,9R)-5-amino-6-(2,3-difluorophenyl)-6,7,8,9-tetrahydro-5H-cyclohepta[b]pyridin-9-yl] 4-(2-oxo-3H-imidazo[4,5-b]pyridin-1-yl)piperidine-1-carboxylate]", "values": [
      {"measurement": ">=30.0% decrease in migraines (headache days) per month, percent of subjects", "setting": "[1]; Study 201, Overall, n 1731, treatment vs observation phase", "value": 30.2, "unit": "%"},
      {"measurement": "Onset of reductions in the mean number of headache days per month", "setting": "[1]; Study 201, continued in subsequent months", "value": "as early as the first month"},
      {"measurement": "Hy's Law cases", "setting": "[1]; Study 201 interim", "value": "no Hy's Law cases"},
      {"measurement": "Incidence of serum ALT or AST>3× ULN", "setting": "[1]; Study 201 interim", "value": 1.0, "unit": "%"},
      {"measurement": "Safety and tolerability of long-term dosing", "setting": "[1]; Study 201 interim analysis, 75 mg up to once daily", "value": "consistent with the profile observed in phase 1-3 studies to date"},
      {"measurement": "Liver safety signal", "setting": "[1]; Study 201 interim, including near-daily dosing (≥15 doses/month)", "value": "no liver safety signal detected"},
      {"measurement": "Liver cases assessed as probably related to study drug", "setting": "[1]; Study 201 interim, independent panel of liver experts", "value": "no liver cases"},
      {"measurement": "SAEs related to the study drug", "setting": "[2]", "value": "No SAE"},
      {"measurement": "AE dizziness, incidence", "setting": "[2]; 75 mg tablet", "value": 0.7, "unit": "%"},
      {"measurement": "AE dizziness, n/N", "setting": "[2]; 75 mg tablet", "value": "4/546"},
      {"measurement": "AE nausea, incidence", "setting": "[2]; 75 mg tablet", "value": 0.9, "unit": "%"},
      {"measurement": "AE nausea, n/N", "setting": "[2]; 75 mg tablet", "value": "5/546"},
      {"measurement": "Bilirubin elevations >2 times ULN", "setting": "[2]; 75 mg tablet", "value": "No bilirubin elevations"},
      {"measurement": "Serum ALT or AST > ULN, n/N", "setting": "[2]; 75 mg tablet", "value": "11/546"},
      {"measurement": "Serum ALT or AST > ULN, subjects", "setting": "[2]; 75 mg tablet", "value": 2.0, "unit": "%"},
      {"measurement": "Transaminase level >3 times ULN, number of subjects", "setting": "[2]; 75 mg tablet", "value": "One"},
      {"measurement": "Transaminase level >3 times ULN, subjects", "setting": "[2]; 75 mg tablet", "value": 0.2, "unit": "%"},
      {"measurement": "Transaminase level >5 times ULN", "setting": "[2]; 75 mg tablet", "value": "no subject"},
      {"measurement": "Normal function at 2 hours (functional disability) vs placebo", "setting": "[2]; P<0.0001", "value": "greater proportion"},
      {"measurement": "Serious AEs, number of subjects", "setting": "[2]; [3]", "value": 2},
      {"measurement": "Serious AEs, subjects", "setting": "[2]; [3]", "value": 0.4, "unit": "%"},
      {"measurement": "Sustained pain relief from 2 through 48 hours postdose vs placebo", "setting": "[2]; single dose, no rescue medication, P=0.0003", "value": "superiority versus placebo"},
      {"measurement": "Sustained pain freedom from 2 through 48 hours postdose vs placebo", "setting": "[2]; single dose, no rescue medication, P=0.013", "value": "superiority versus placebo"}
    ]}
  ]
}
